Experimental data from PubChem BioAssay (NCI).
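GI50 is the concentration that inhibits growth by half. The concentration for full growth arrest is given as TGI.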

Assays:
Assay in all cases: DTP human tumour cell line panel, 384-well format
[1] = tested on: 786-0 renal
[2] = tested on: A498 renal
[3] = tested on: A549 NSCLC
[4] = tested on: ACHN renal
[5] = tested on: BT-549 breast
[6] = tested on: CAKI-1 renal
[7] = tested on: CCRF-CEM leukemia
[8] = tested on: COLO 205 colon
[9] = tested on: DU-145 prostate
[10] = tested on: EKVX NSCLC
[11] = tested on: HCC-2998 colon
[12] = tested on: HCT-15 colon
[13] = tested on: HL-60(TB) leukemia
[14] = tested on: HOP-62 NSCLC
[15] = tested on: HOP-92 NSCLC
[16] = tested on: HS 578T breast
[17] = tested on: HT29 colon
[18] = tested on: IGROV1 ovarian
[19] = tested on: K-562 leukemia
[20] = tested on: KM12 colon
[21] = tested on: LOX IMVI melanoma
[22] = tested on: M14 melanoma
[23] = tested on: MALME-3M melanoma
[24] = tested on: MCF7 breast
[25] = tested on: MDA-MB-231 breast
[26] = tested on: MDA-MB-435 melanoma
[27] = tested on: MDA-MB-468 breast
[28] = tested on: MOLT-4 leukemia
[29] = tested on: NCI-H226 lung
[30] = tested on: NCI-H23 lung
[31] = tested on: NCI-H322M lung
[32] = tested on: NCI-H460 NSCLC
[33] = tested on: NCI-H522 lung
[34] = tested on: NCI/ADR-RES ovarian
[35] = tested on: OVCAR-3 ovarian
[36] = tested on: OVCAR-4 ovarian
[37] = tested on: OVCAR-5 ovarian
[38] = tested on: OVCAR-8 ovarian
[39] = tested on: PC-3 prostate
[40] = tested on: RPMI-8226 leukemia
[41] = tested on: RXF 393 renal
[42] = tested on: SF-268 CNS
[43] = tested on: SF-295 CNS
[44] = tested on: SF-539 CNS
[45] = tested on: SK-MEL-28 melanoma
[46] = tested on: SK-MEL-5 melanoma
[47] = tested on: SK-OV-3 ovarian
[48] = tested on: SN12C renal
[49] = tested on: SNB-19 CNS
[50] = tested on: SNB-75 CNS
[51] = tested on: SR leukemia
[52] = tested on: SW-620 colon
[53] = tested on: T-47D breast
[54] = tested on: TK-10 renal
[55] = tested on: UACC-257 melanoma
[56] = tested on: UACC-62 melanoma
[57] = tested on: UO-31 renal

`CCC(CC)n1cnc2c(-c3cnc(N)cn3)nc(N3CC4CCC(C3)O4)nc21` was tested, and the GI50 [1] was 2.75 µM, the TGI [1] was greater than 100 µM and the GI50 [2] was 0.173 µM. It also gave a TGI [2] of 1.32 µM, a GI50 [3] of 0.418 µM and a TGI [3] greater than 100 µM. For the same molecule, the GI50 [4] was 0.523 µM, the TGI [4] was greater than 100 µM and the GI50 [5] was 1.06 µM. For the same molecule, the TGI [5] was 5.22 µM, the GI50 [6] was 0.775 µM and the TGI [6] was 45.8 µM. For the same molecule, the GI50 [7] was 0.358 µM, the TGI [7] was 14 µM and the GI50 [8] was 0.425 µM. The TGI [8] was greater than 100 µM, the GI50 [9] was 2.03 µM and the TGI [9] was greater than 100 µM. The GI50 [10] was 0.977 µM, the TGI [10] was 9.92 µM and the GI50 [11] was 10.5 µM. For the same molecule, the TGI [11] was greater than 100 µM, the GI50 [12] was 0.566 µM and the TGI [12] was greater than 100 µM. The GI50 [13] was 44.5 µM, the TGI [13] was greater than 100 µM and the GI50 [14] was 1.01 µM. It also gave a TGI [14] of 39.1 µM, a GI50 [15] of 0.298 µM and a TGI [15] of 4.96 µM. For the same molecule, the GI50 [16] was 0.205 µM, the TGI [16] was 0.927 µM and the GI50 [17] was 2.53 µM. For the same molecule, the TGI [17] was greater than 100 µM, the GI50 [18] was 0.229 µM and the TGI [18] was 0.894 µM. The GI50 [19] was 1.68 µM, the TGI [19] was greater than 100 µM and the GI50 [20] was 0.508 µM. For the same molecule, the TGI [20] was greater than 100 µM, the GI50 [21] was 1.08 µM and the TGI [21] was 8.87 µM. It also gave a GI50 [22] of 0.493 µM, a TGI [22] greater than 100 µM and a GI50 [23] of 0.0694 µM. The TGI [23] was 0.531 µM, the GI50 [24] was 0.184 µM and the TGI [24] was 80.3 µM. The GI50 [25] was 0.68 µM, the TGI [25] was greater than 100 µM and the GI50 [26] was 1.58 µM. It also gave a TGI [26] of 39.9 µM, a GI50 [27] of 0.375 µM and a TGI [27] of 1.2 µM. For the same molecule, the GI50 [28] was 0.375 µM, the TGI [28] was 10.5 µM and the GI50 [29] was 0.54 µM. The TGI [29] was 6.52 µM, the GI50 [30] was 1.27 µM and the TGI [30] was greater than 100 µM. The GI50 [31] was 0.394 µM, the TGI [31] was greater than 100 µM and the GI50 [32] was 0.187 µM. For the same molecule, the TGI [32] was greater than 100 µM, the GI50 [33] was 0.314 µM and the TGI [33] was greater than 100 µM. The GI50 [34] was 2.77 µM, the TGI [34] was greater than 100 µM and the GI50 [35] was 0.901 µM. For the same molecule, the TGI [35] was greater than 100 µM, the GI50 [36] was 0.635 µM and the TGI [36] was 3.79 µM. It also gave a GI50 [37] of 0.685 µM, a TGI [37] greater than 100 µM and a GI50 [38] of 1.75 µM. The TGI [38] was greater than 100 µM, the GI50 [39] was 0.348 µM and the TGI [39] was greater than 100 µM. It also gave a GI50 [40] of 0.029 µM, a TGI [40] of 0.151 µM and a GI50 [41] of 1.29 µM. For the same molecule, the TGI [41] was greater than 100 µM, the GI50 [42] was 2.57 µM and the TGI [42] was greater than 100 µM. For the same molecule, the GI50 [43] was 0.267 µM, the TGI [43] was 2.28 µM and the GI50 [44] was 1.63 µM. For the same molecule, the TGI [44] was greater than 100 µM, the GI50 [45] was 0.309 µM and the TGI [45] was 5.99 µM. For the same molecule, the GI50 [46] was 0.288 µM, the TGI [46] was 1.61 µM and the GI50 [47] was 0.4 µM. It also gave a TGI [47] of 5.19 µM, a GI50 [48] of 0.433 µM and a TGI [48] greater than 100 µM. It also gave a GI50 [49] of 8.09 µM, a TGI [49] greater than 100 µM and a GI50 [50] of 0.312 µM. The TGI [50] was 7.84 µM, the GI50 [51] was 0.189 µM and the TGI [51] was 1.17 µM. The GI50 [52] was 3.46 µM, the TGI [52] was greater than 100 µM and the GI50 [53] was 0.0669 µM. The TGI [53] was 0.431 µM, the GI50 [54] was 1.39 µM and the TGI [54] was greater than 100 µM. It also gave a GI50 [55] of 2.37 µM, a TGI [55] greater than 100 µM and a GI50 [56] of 0.416 µM. It also gave a TGI [56] of 4.61 µM, a GI50 [57] of 3.03 µM and a TGI [57] greater than 100 µM.
